Source: patent US20140288025A1, “FATTY ACID ANTIVIRAL CONJUGATES AND THEIR USES” (Catabasis Pharmaceuticals, Inc., priority 2013, published 2014)
Where two headings read alike, the source gives them in different places.

What was measured:
NF-κB = NF-κB luciferase reporter assay in RAW 264.7 macrophages; format: cell-based; details: for IC50: Mus musculus
Method: RAW 264.7 cells stably expressing a 3×NFkB response element-drive luciferase reporter were seeded into 96 well plates in sera-free medium (Optimem) 18 hours prior to compound application. Compounds of the invention were prepared by first making 100 mM stock solutions in EtOH. […] Cells were then stimulated with 200 ng/ml LPS or vehicle control for 3 hours in the presence of the compounds of the invention. A set of six vehicles was left unstimulated with LPS in order to measure the assay floor. AlamarBlue viability dye (Invitrogen) was added to cells simultaneously with the delivery of LPS (final AlamarBlue concentration of 10%). After the 3 h incubation period with LPS, cell viability was measured by reading fluorescence (excitation 550 nm, emission 595 nm) with a Perkin Elmer Victor V plate reader. Then cell media was aspirated from each well. Luciferase signal was then developed by addition of the Britelite Plus reagent (Perkin Elmer). Luciferase activity was measured with the Perkin Elmer Victor V plate reader. NE-κB activity was expressed as a percent of the vehicle control wells (stimulated with LPS). Compounds were tested at 6 dose point titrations in triplicate to determine IC50 values.

HIV-1IIIB strain = assay: HIV-1 cytoprotection assay (CEM-SS cells, MTS dye reduction); format: cell-based
Method: Cytoprotection assays are commonly used for evaluating the antiviral efficacy of test compounds against a variety of viruses in different cell lines. […] Briefly, virus and cells are mixed in the presence of test compound and incubated for 6 days. […] Each assay plate contains cell control wells (cells only), virus control wells (cells plus virus), compound toxicity control wells (cells plus compound only), compound colorimetric control wells (compound only), as well as experimental wells (compound plus cells plus virus). Cytoprotection and compound cytotoxicity are assessed by MTS (CellTiter®96 Reagent, Promega, Madison Wis.) dye reduction. […] Each assay includes the HIV reverse transcriptase inhibitor AZT as a positive control.
CEM-SS cells were obtained from the NIH AIDS Research and Reference Reagent Program and are routinely passaged in T-75 flasks using standard tissue culture techniques based on the specifications provided by the supplier. On the day preceding the assay, the cells are split 1:2 to assure they are in an exponential growth phase at the time of infection. Total cell number and percent viability determinations are performed using a hemacytometer and trypan blue exclusion. […] The cells are re-suspended at 5×10^4 cells/mL in tissue culture medium and added to the drug-containing 96-well microtiter plates in a volume of 50 μl.
The viruses used for this assay are CXCR4-tropic laboratory virus strains. The most commonly used strains are HIV-1RF and HIV-1IIIB (each obtained from the NIH AIDS Research and Reference Reagent Program). For each assay, a pre-titered aliquot of virus is removed from the freezer (−80° C.) and allowed to thaw slowly to room temperature in a biological safety cabinet. The virus is re-suspended and diluted into tissue culture medium such that the amount of virus added to each well in a volume of 50 μl is the amount determined to give between 85 to 95% cell killing at 6 days post-infection.
Each plate contains cell control wells (cells only), virus control wells (cells plus virus), drug cytotoxicity wells (cells plus drug only), drug colorimetric control wells (drug only), background control wells (media only), as well as experimental wells (drug plus cells plus virus). Samples are evaluated for antiviral efficacy with triplicate measurements using 6 concentrations at half-log dilutions (12 concentrations can also be performed) in order to determine IC50 values and with duplicate measurements to determine cellular cytotoxicity, if detectable.
100% EtOH is added to the compounds of the invention such that the EtOH stock concentration is 50 mM. […] (VWR Ultrasonics Cleaner, Model #B8500A-DTH with “Sonics Power” set to HI); e) The 1:2 serial dilutions of the 1 mM 10× stock solution with FBS/2% EtOH are prepared such that the concentrations of the 10× stock solutions are 1 mM, 0.5 mM, 0.25 mM, etc., in FBS with 2% EtOH. Medium is aspirated off cells and replaced with serum free medium.

[1] = RAW264.7, RAW 264.7 reporter cells, 200 ng/ml LPS, 3 hours, read-out: NF-kB inhibitory activity IC50
[2] = CEM-SS cells, HIV-1 IIIB strain, 6 days, MTS
[3] = Human immunodeficiency virus 1, IIIB, CEM-SS, 144 h, read-out: IC50 HIV-1IIIB strain (nM)
[4] = RAW 264.7 reporter cells, 200 ng/ml LPS, 3 hours
[5] = RAW264.7, 3 h, read-out: NF-kB inhibitory activity IC50 μM

IC50 (NF-κB; [1]) [µM]	Structure (SMILES)	also measured
< 50	CC/C=C\C/C=C\C/C=C\C/C=C\C/C=C\CCCC(=O)Nc1ccc(S(=O)(=O)N(CC(C)C)C[C@@H](O)[C@H](Cc2ccccc2)NC(=O)O[C@H]2CO[C@H]3OCC[C@H]32)cc1 [VII-2, (3R,3aS,6aR)-hexahydrofuro[2,3-b]furan-3-yl((2S,3R)-3-hydroxy-4-(4-((5Z,8Z,11Z,14Z,17Z)-icosa-5,8,11,14,17-pentaenamido)-N-isobutylphenylsulfonamido)-1-phenylbutan-2-yl)carbamate]	IC50 HIV-1IIIB strain (nM) (HIV-1IIIB strain; [2]): + ++
< 50	CC/C=C\C/C=C\C/C=C\C/C=C\C/C=C\C/C=C\CCC(=O)NCCN(C)CCNC(=O)OC[C@H]1O[C@@H](n2ccc(N)nc2=O)[C@](C)(F)[C@@H]1O [Example V-30, ((2R,3R,4R,5R)-5-(4-amino-2-oxopyrimidin-1(2H)-yl)-4-fluoro-3-hydroxy-4-methyltetrahydrofuran-2-yl)methyl (2-((2-((4Z,7Z,10Z,13Z,16Z,19Z)-docosa-4,7,10,13,16,19-hexaenamido)ethyl)(methyl)amino)ethyl)carbamate]	
50 to 200	CC/C=C\C/C=C\C/C=C\C/C=C\C/C=C\C/C=C\CCC(=O)NCCOCCNC(=O)OC[C@H]1O[C@H](n2cc(C)c(=O)[nH]c2=O)C[C@@H]1N=[N+]=[N-] [Example V-8, ((2S,3S,5S)-3-azido-5-(5-methyl-2,4-dioxo-3,4-dihydropyrimidin-1(2H)-yl)tetrahydrofuran-2-yl)methyl (2-(2-((4Z,7Z,10Z,13Z,16Z,19Z)-docosa-4,7,10,13,16,19-hexaenamido)ethoxy)ethyl)carbamate]	
50 to 200	CC/C=C\C/C=C\C/C=C\C/C=C\C/C=C\C/C=C\CCC(=O)Nc1ncc2ncn(CCC(COC(C)=O)COC(C)=O)c2n1 [Example V-10, 2-(2-(2-((4Z,7Z,10Z,13Z,16Z,19Z)-docosa-4,7,10,13,16,19-hexaenamido)-9H-purin-9-yl)ethyl)propane-1,3-diyl diacetate]	
50 to 200	CC/C=C\C/C=C\C/C=C\C/C=C\C/C=C\C/C=C\CCC(=O)N[C@H](C(=O)OC[C@H]1O[C@H](n2cc(C)c(=O)[nH]c2=O)C[C@@H]1N=[N+]=[N-])C(C)C [Example V-9, (S)-((2S,3S,5S)-3-azido-5-(5-methyl-2,4-dioxo-3,4-dihydropyrimidin-1(2H)-yl)tetrahydrofuran-2-yl)methyl 2-((4Z,7Z,10Z,13Z,16Z,19Z)-docosa-4,7,10,13,16,19-hexaenamido)-3-methylbutanoate]	
50 to 200	CC/C=C\C/C=C\C/C=C\C/C=C\C/C=C\CCCC(=O)Nc1ncc2ncn(CCC(COC(C)=O)COC(C)=O)c2n1 [Example V-12, 2-(2-(2-((5Z,8Z,11Z,14Z,17Z)-icosa-5,8,11,14,17-pentaenamido)-9H-purin-9-yl)ethyl)propane-1,3-diyl diacetate]	

Further lines, the compound ahead of its results:

Structure (SMILES)	IC50 (NF-κB; [1]) [µM]	also measured
CC(=O)OCC(CCn1cnc2cnc(N)nc21)COC(C)=O [Famciclovir, reference compound]	> 200	
C=C1[C@H](CO)[C@@H](O)C[C@@H]1n1cnc2c(=O)[nH]c(N)nc21 [Entecavir, entecavir, reference compound]	> 200	
Nc1ccn([C@@H]2CS[C@H](CO)O2)c(=O)n1 [Lamivudine, lamivudine, reference compound]	> 200	
CC/C=C\C/C=C\C/C=C\C/C=C\C/C=C\C/C=C\CCC(=O)NCCNP(=O)(OC[C@H]1O[C@H](n2cc(C)c(=O)[nH]c2=O)C[C@@H]1N=[N+]=[N-])Oc1ccccc1 (stereo partly drawn) [II-25, ((2S,3S,5S)-3-azido-5-(5-methyl-2,4-dioxo-3,4-dihydropyrimidin-1(2H)-yl)tetrahydrofuran-2-yl)methyl phenyl (2-((4Z,7Z,10Z,13Z,16Z,19Z)-docosa-4,7,10,13,16,19-hexaenamido)ethyl)phosphoramidate]		IC50 (HIV-1IIIB strain; [3]): < 100 nM; NF-kB inhibitory activity IC50 μM (NF-κB; [4]): + +
CC/C=C\C/C=C\C/C=C\C/C=C\C/C=C\CCCC(=O)NCCNP(=O)(OC)OC[C@@H]1O[C@H](n2ccc(N)nc2=O)CS1 (stereo partly drawn) [II-70, ((2R,5S)-5-(4-amino-2-oxopyrimidin-1(2H)-yl)-1,3-oxathiolan-2-yl)methyl methyl (2-((5Z,8Z,11Z,14Z,17Z)-icosa-5,8,11,14,17-pentaenamido)ethyl)phosphoramidate]		IC50 (NF-κB; [5]): 50 to 200 µM
CC/C=C\C/C=C\C/C=C\C/C=C\C/C=C\C/C=C\CCC(=O)Nc1ncc2ncn(CCC(CO)CO)c2n1 [Example V-11, (4Z,7Z,10Z,13Z,16Z,19Z)—N-(9-(4-hydroxy-3-(hydroxymethyl)butyl)-9H-purin-2-yl)docosa-4,7,10,13,16,19-hexaenamide]	50 to 200	
CC/C=C\C/C=C\C/C=C\C/C=C\C/C=C\CCCC(=O)NCCNP(=O)(OC)OC[C@H]1O[C@H](n2cc(C)c(=O)[nH]c2=O)C[C@@H]1N=[N+]=[N-] (stereo partly drawn) [II-30, ((2S,3S,5S)-3-azido-5-(5-methyl-2,4-dioxo-3,4-dihydropyrimidin-1(2H)-yl)tetrahydrofuran-2-yl)methyl methyl (2-((5Z,8Z,11Z,14Z,17Z)-icosa-5,8,11,14,17-pentaenamido)ethyl)phosphoramidate]		IC50 (HIV-1IIIB strain; [3]): > 100 nM; NF-kB inhibitory activity IC50 μM (NF-κB; [4]): + +
CC/C=C\C/C=C\C/C=C\C/C=C\C/C=C\C/C=C\CCC(=O)NCCNC(=O)OC[C@H]1O[C@H](n2cc(C)c(=O)[nH]c2=O)C[C@@H]1N=[N+]=[N-] [Example V-5, ((2S,3S,5S)-3-azido-5-(5-methyl-2,4-dioxo-3,4-dihydropyrimidin-1(2H)-yl)tetrahydrofuran-2-yl)methyl (2-((4Z,7Z,10Z,13Z,16Z,19Z)-docosa-4,7,10,13,16,19-hexaenamido)ethyl)carbamate]		IC50 (HIV-1IIIB strain; Human immunodeficiency virus 1, 144 h, CEM-SS cells, HIV-1 IIIB strain, 6 days, MTS, read-out: IC50 HIV-1IIIB strain): > 100 nM; NF-kB inhibitory activity IC50 μM (NF-κB; [4]): + +
Cc1cn([C@H]2C[C@H](N=[N+]=[N-])[C@@H](CO)O2)c(=O)[nH]c1=O [Zidovudine, reference compound]	> 200	
CC/C=C\C/C=C\C/C=C\C/C=C\C/C=C\C/C=C\CCC(=O)Nc1ccc(S(=O)(=O)N(CC(C)C)C[C@@H](O)[C@H](Cc2ccccc2)NC(=O)O[C@H]2CO[C@H]3OCC[C@H]32)cc1 [VII-1, (3R,3aS,6aR)-hexahydrofuro[2,3-b]furan-3-yl ((2S,3R)-4-(4-((4Z,7Z,10Z,13Z,16Z,19Z)-docosa-4,7,10,13,16,19-hexaenamido)-N-isobutylphenylsulfonamido)-3-hydroxy-1-phenylbutan-2-yl)carbamate]		IC50 HIV-1IIIB strain (nM) (HIV-1IIIB strain; [2]): + ++; IC50 (NF-κB; [5]): 50 to 200 µM
CC(C)CN(C[C@@H](O)[C@H](Cc1ccccc1)NC(=O)O[C@H]1CO[C@H]2OCC[C@H]21)S(=O)(=O)c1ccc(N)cc1 [Darunavir, darunavir, reference compound]		IC50 (NF-κB; [5]): > 200 µM
